Test results as given in ChEMBL document CHEMBL5523671, “ω-(5-Phenyl-2H-tetrazol-2-yl)alkyl-substituted glycine amides and related compounds as inhibitors of the amine oxidase vascular adhesion protein-1 (VAP-1)” (Bioorg Med Chem, 2024).

Experiments:
[1] = target: T1, VAP-1 (amine oxidase [copper-containing] 3) (Bos taurus, UniProt Q9TTK6); experiment: Stability of compound assessed as bovine plasma VAP-1 mediated drug degradation by measuring parent compound remaining at 10 uM incubated for 15 mins by HPLC-MS analysis; type: ADME, cell-free; details: cattle, bovine plasma VAP-1 (amine oxidase [copper-containing] 3), read-out: Stability
T1 sequence (Q9TTK6 whole entry): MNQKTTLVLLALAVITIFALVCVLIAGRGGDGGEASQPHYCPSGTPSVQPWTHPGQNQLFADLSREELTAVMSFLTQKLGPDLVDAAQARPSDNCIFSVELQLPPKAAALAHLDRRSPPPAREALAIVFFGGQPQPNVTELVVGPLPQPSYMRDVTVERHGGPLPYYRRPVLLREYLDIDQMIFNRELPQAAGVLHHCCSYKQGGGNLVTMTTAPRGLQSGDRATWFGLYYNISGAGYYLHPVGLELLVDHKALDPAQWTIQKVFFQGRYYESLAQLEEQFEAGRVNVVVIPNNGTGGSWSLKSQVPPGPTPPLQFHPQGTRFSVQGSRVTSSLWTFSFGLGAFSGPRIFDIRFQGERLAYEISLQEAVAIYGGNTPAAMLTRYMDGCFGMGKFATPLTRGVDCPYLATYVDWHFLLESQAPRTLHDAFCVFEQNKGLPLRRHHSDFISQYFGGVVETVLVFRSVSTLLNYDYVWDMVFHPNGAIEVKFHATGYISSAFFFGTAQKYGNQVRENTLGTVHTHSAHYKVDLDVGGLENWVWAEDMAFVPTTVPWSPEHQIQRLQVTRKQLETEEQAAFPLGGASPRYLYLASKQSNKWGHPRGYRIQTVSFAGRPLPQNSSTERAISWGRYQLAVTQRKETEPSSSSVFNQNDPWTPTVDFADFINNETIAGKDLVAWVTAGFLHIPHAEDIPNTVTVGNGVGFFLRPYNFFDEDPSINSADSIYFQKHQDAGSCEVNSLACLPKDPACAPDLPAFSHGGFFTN

[2] = target: T1, VAP-1 (amine oxidase [copper-containing] 3); experiment: Stability of compound assessed as bovine plasma VAP-1 mediated drug degradation by measuring parent compound remaining at 10 uM incubated for 30 mins by HPLC-MS analysis; type: ADME, cell-free; details: cattle, bovine plasma VAP-1 (amine oxidase [copper-containing] 3), read-out: Stability
[3] = target: T1, VAP-1 (amine oxidase [copper-containing] 3); experiment: Stability of compound assessed as bovine plasma VAP-1 mediated drug degradation by measuring parent compound remaining at 10 uM incubated for 120 mins by HPLC-MS analysis; type: ADME, cell-free; details: cattle, bovine plasma VAP-1 (amine oxidase [copper-containing] 3), read-out: Stability
[4] = target: T2, Amine oxidase [copper-containing] 3 (Homo sapiens, UniProt Q16853); experiment: Inhibition of human plasma VAP-1 using 6-(5-Pheny1-2H-tetrazol-2-yl)hexan-1-amine as substrate preincubated with enzyme for 15 mins followed by substrate addition measured after 120 mins by UV-HPLC analysis; type: cell-free
T2 sequence (Q16853 whole entry): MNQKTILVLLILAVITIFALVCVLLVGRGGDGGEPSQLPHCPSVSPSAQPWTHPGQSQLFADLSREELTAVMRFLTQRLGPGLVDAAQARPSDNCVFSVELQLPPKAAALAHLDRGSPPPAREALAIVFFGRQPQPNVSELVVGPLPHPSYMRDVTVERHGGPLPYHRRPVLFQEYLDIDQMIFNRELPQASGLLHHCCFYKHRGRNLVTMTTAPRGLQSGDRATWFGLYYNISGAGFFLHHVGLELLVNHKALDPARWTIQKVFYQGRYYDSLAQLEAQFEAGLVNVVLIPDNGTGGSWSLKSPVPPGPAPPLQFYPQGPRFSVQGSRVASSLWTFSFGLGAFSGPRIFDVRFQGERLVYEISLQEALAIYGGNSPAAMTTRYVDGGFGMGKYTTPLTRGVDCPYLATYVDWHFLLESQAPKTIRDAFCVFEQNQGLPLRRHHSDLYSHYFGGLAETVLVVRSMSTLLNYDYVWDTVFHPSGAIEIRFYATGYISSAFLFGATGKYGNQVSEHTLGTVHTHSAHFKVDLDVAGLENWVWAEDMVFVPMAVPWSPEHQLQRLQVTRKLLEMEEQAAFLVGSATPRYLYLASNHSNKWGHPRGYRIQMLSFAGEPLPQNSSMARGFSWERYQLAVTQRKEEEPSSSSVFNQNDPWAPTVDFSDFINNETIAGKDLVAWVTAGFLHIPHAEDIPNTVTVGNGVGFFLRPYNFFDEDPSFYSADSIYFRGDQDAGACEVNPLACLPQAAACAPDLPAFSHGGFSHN

[5] = target: T3, Amine oxidase [copper-containing] 3 (Homo sapiens) (UniProt Q16853); experiment: Inhibition of human plasma VAP-1 using 6-(5-Pheny1-2H-tetrazol-2-yl)hexan-1-amine as substrate at 10 uM preincubated with enzyme for 15 mins followed by substrate addition measured after 120 mins by UV-HPLC analysis relative to control; type: cell-free; details: time 135.0 min
T3 sequence (whole entry): T2 sequence (Q16853 whole entry)

[6] = Selectivity index, ratio of IC50 for human plasma VAP-1 to IC50 for bovine plasma VAP-1
[7] = target: T4, Amine oxidase [copper-containing] 3 (Bos taurus, UniProt Q9TTK6); experiment: Stability of compound assessed as bovine plasma VAP-1 mediated drug degradation by measuring formation of aldehyde metabolite at 1 to 10 uM incubated for 60 to 120 mins by HPLC-MS analysis; type: ADME, cell-free; details: cattle, dose lower 1 µM, time lower 60 min, dose upper 10 µM, time upper 120 min
T4 sequence (Q9TTK6 whole entry): T1 sequence (Q9TTK6 whole entry)

[8] = target: T3, Amine oxidase [copper-containing] 3 (Homo sapiens); experiment: Inhibition of human plasma VAP-1 using 6-(5-Pheny1-2H-tetrazol-2-yl)hexan-1-amine as substrate at 100 uM preincubated with enzyme for 15 mins followed by substrate addition measured after 120 mins by UV-HPLC analysis relative to control; type: cell-free; details: time 135.0 min
[9] = target: T1, VAP-1 (amine oxidase [copper-containing] 3); experiment: Stability of compound assessed as bovine plasma VAP-1 mediated drug degradation by measuring parent compound remaining at 10 uM incubated for 60 mins by HPLC-MS analysis; type: ADME, cell-free; details: cattle, bovine plasma VAP-1 (amine oxidase [copper-containing] 3), read-out: Stability
[10] = target: Amine oxidase [copper-containing] 1 (diamine oxidase, Sus scrofa) (UniProt Q9TRC7); experiment: Inhibition of porcine kidney DAO using 6-(5-phenyltetrazol-2-yl)hexan-1-amine as substrate at 10 uM preincubated with enzyme for 15 mins followed by substrate addition measured after 30 mins by UV-HPLC analysis relative to control; details: time 45.0 min
Sequence of Amine oxidase [copper-containing] 1 (diamine oxidase, Sus scrofa) (Q9TRC7 whole entry, looked up): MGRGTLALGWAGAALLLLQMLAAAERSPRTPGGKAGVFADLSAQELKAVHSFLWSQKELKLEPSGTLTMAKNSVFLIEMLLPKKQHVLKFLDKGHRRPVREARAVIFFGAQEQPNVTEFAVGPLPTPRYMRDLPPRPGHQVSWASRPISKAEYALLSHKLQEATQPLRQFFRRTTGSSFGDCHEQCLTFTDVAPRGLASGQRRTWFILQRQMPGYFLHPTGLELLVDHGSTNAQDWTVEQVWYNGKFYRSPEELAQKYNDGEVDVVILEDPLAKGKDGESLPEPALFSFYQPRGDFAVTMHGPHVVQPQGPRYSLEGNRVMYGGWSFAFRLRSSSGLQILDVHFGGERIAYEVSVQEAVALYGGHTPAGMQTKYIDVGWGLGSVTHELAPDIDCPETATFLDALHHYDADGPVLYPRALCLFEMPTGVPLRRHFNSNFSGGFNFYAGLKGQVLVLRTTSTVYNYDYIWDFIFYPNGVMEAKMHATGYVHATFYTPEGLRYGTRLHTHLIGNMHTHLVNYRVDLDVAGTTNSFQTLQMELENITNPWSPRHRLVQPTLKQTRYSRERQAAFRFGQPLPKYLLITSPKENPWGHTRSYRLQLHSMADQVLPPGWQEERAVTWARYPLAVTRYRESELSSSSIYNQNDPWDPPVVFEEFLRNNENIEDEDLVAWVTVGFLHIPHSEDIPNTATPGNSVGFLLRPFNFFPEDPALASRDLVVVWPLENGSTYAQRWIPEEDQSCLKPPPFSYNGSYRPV

| remaining at 0.25 h, 10 µM [1] [%] | remaining at 0.5 h, 10 µM [2] [%] | remaining at 2 h, 10 µM [3] [%] | IC50 [4] [µM] | inhibition [5] [%] | Ratio IC50 [6] | Stability [7] | inhibition [8] [%] | remaining at 1 h, 10 µM [9] [%] | inhibition [10] [%] | SMILES |
| --- | --- | --- | --- | --- | --- | --- | --- | --- | --- | --- |
| 85 | 79 | 29 | 32 | 17 | 2 | Unstable |  |  |  | N#Cc1ccc(-c2nnn(CCCCCCNC(=O)CN)n2)cc1 |
| 80 | 58 | < 5 | > 100 |  |  | Unstable | 23 |  |  | NCC(=O)NCCCCCCn1nnc(-c2ccccc2)n1 |
| 92 | 85 | 23 |  |  |  | Unstable |  | 66 | 39 | NCC(=O)NCc1cccc(-c2ccccc2)c1 |
